# Reference: US20070259914A1, “Novel Piperidine Derivates as Modulators of Chemokine Receptor Ccr5” (priority 2004, published 2007)
# pIC50: −log10 of the molar value.
# Target: recombinant human CCR5 receptor (Homo sapiens, UniProt P51681)
# Test: MIP-1α radioligand binding assay (scintillation proximity, CHO cell membranes)
# Conditions: displacement of 0.1 nM iodinated MIP-1α from membranes of Chinese hamster ovary cells expressing recombinant human CCR5; average if tested more than once
# Description: The ability of compounds to inhibit the binding of MIP-1α was assessed by an in vitro radioligand binding assay. Membranes were prepared from Chinese hamster ovary cells which expressed the recombinant human CCR5 receptor. These membranes were incubated with 0.1 nM iodinated MIP-1α, scintillation proximity beads and various concentrations of the compounds of the invention in 96-well plates. The amount of iodinated MIP-1α bound to the receptor was determined by scintillation counting.
# In Table II the results are presented as Pic50 values. […] If a as tested more than once then the data below is an average of the probative tests
# Chain of recombinant human CCR5 receptor (P51681 whole entry): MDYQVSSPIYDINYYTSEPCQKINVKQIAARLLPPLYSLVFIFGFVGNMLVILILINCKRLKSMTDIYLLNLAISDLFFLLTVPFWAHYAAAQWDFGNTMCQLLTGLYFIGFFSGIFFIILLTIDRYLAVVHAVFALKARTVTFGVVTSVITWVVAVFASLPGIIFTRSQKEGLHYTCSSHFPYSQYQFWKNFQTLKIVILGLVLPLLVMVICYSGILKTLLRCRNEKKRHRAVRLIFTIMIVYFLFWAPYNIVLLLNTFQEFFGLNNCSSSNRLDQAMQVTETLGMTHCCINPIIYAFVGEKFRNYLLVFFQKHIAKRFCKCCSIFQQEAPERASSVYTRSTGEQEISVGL
row,pIC50,SMILES
1,8.45,CCN(C(=O)Cc1ccc(S(C)(=O)=O)cc1)C1CCN(CC[C@@H](c2cccc(C(F)(F)F)c2)C2CCN(S(C)(=O)=O)CC2)CC1 [Compound 3]
2,9.50,"CCN(C(=O)Cc1ccc(S(C)(=O)=O)cc1)C1CCN(CC[C@@H](c2cc(F)cc(F)c2)C2CCN(S(C)(=O)=O)CC2)CC1 [Compound 1, N-(1-{(3R)-3-(3,5-difluorophenyl)-3-[1-(methylsulfonyl)piperidin-4-yl]propyl}piperidin-4-yl)-N-ethyl-2-[4-(methylsulfonyl)phenyl]-acetamide]"
3,9.30,CCN(C(=O)NCc1ccc(S(C)(=O)=O)cc1)C1CCN(CC[C@@H](c2cc(F)cc(F)c2)C2CCN(S(C)(=O)=O)CC2)CC1 [Compound 2]
4,8.80,CS(=O)(=O)c1ccc(CC(=O)N(C2CC2)C2CCN(CC[C@@H](c3cc(F)cc(F)c3)C3CCN(S(C)(=O)=O)CC3)CC2)cc1 [Compound 4]
